The values below come from PubChem BioAssay (NCI).

Holding throughout (assay): inhibition of tumour cell growth, NCI panel, 48 h
Test [1] deals with SK-MEL-28 melanoma.
In test [2] the test system is SF-295 CNS.
Test [3] concerns U251 CNS.
In test [4] the test system is OVCAR-4 ovarian.
The subject of test [5] is HCT-15 colon.
For test [6], the system named is UACC-257 melanoma.
The subject of test [7] is NCI-H226 lung.
Test [8] deals with OVCAR-3 ovarian.
In test [9] the test system is HCC-2998 colon.

The structures appear in SMILES notation.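 Cells were grown in 96-well plates and exposed to each compound for 48 hours at five concentrations; endpoints were interpolated linearly between bracketing concentrations, or set to the highest concentration if not reached. The concentration for 50% growth inhibition is given as GI50. TGI denotes the concentration required for complete inhibition of growth.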 A value given as a limit tells only on which side of the number the result lay.

Take `O=C(O)/C=C/c1ccc(O)c(O)c1`: the TGI in test [1], in test [2], in [3], in [4], in test [5] and in test [6] was > 100 µM throughout. Moreover, the TGI in test [7], in test [8] and in test [9] was > 100 µM in each case.
With `Cc1ccc(S(=O)c2ccccc2[N+](=O)[O-])cc1` (centres undefined), the TGI in [1], in test [2], in test [3], in [4], in [5] and in [6] was > 100 µM each time. Moreover, the TGI in test [7] is 85.9 µM; in test [8], > 100 µM; in [9] it was > 100 µM.
`NC1=C(O)c2cccc3cccc(c23)C1=O`: the TGI in test [1], in test [2], in test [3], in [4], in test [5] and in test [6] was > 100 µM throughout. Moreover, the TGI in test [7], in test [8] and in [9] was > 100 µM each time.
Turning to `CN(C)CC1CC/C(=C\c2ccc(Cl)c(Cl)c2)C1=O` (centres undefined), the TGI was > 84.8 µM in test [1]; > 78.4 µM in test [2]; > 56.5 µM in test [3]; 58.2 µM in [4]; > 43.1 µM in test [5]; > 60.9 µM in test [6]. Also, the TGI in [7] is > 100 µM; in [8], > 61.5 µM; in test [9], > 58.5 µM.
Regarding `COc1ccc(C(=O)C(C(=O)CCC(=O)Nc2ccc(Cl)c(Cl)c2)c2ccc(OC)cc2)cc1` (centres undefined), the TGI in test [1], in [2], in test [3], in [4], in test [5] and in test [6] was > 100 µM throughout. Moreover, the TGI in [7], in [8] and in test [9] was > 100 µM each time.
In the case of `C/C(CN1C(=O)c2ccccc2C1=O)=N\NS(=O)(=O)c1ccc2ccccc2c1`, the TGI in test [1], in [2], in test [3], in test [4], in [5] and in [6] was > 100 µM throughout. Further, the TGI in test [7], in test [8] and in test [9] was > 100 µM in each case.
For the molecule `O=C(/C=C/c1ccccc1)NC1C=Nc2ccc([N+](=O)[O-])cc2NC1=O` (centres undefined), the TGI in test [1], in test [2], in [3], in [4], in test [5] and in test [6] was > 100 µM throughout. The TGI in test [7], in test [8] and in [9] was > 100 µM in each case.
As to `CN(C)CCC(N)(P(=O)([O-])[O-])P(=O)([O-])[O-].N.N.[Pt+2]`, the GI50 in test [1], in test [2], in test [3], in test [4], in [5] and in test [6] was > 100 µM each time. For the same molecule, the GI50 in [7], in test [8] and in test [9] was > 100 µM throughout. For the same molecule, the TGI in test [1], in test [2], in test [3], in test [4], in test [5] and in test [6] was > 100 µM throughout. Also, the TGI in [7], in [8] and in test [9] was > 100 µM throughout.
In the case of `COc1ccc2c(c1)[C@@H](NC(C)=O)CCc1cc(OC)c(OC)c(OC)c1-2`, the TGI in [1] was > 100 µM; in test [2] it was < 0.215 µM; in test [3], 2.02 µM; in [4], > 100 µM; in test [5], > 30.9 µM; in test [6], > 100 µM. Further, the TGI in [7] is > 16.3 µM; in test [8] it was < 0.215 µM; in [9], 13 µM.
Regarding `O=C(CCc1nnc2s/c(=C\c3ccc([N+](=O)[O-])cc3)c(=O)n12)Nc1ccc(Cl)c(Cl)c1`, the TGI is 63.8 µM in test [1]; 58.4 µM in test [2]; 31.2 µM in [3]; 35.1 µM in [4]; > 100 µM in [5]; > 100 µM in test [6]. In addition, the figures for the TGI in test [7], in test [8] and in test [9] were 37 µM, 27 µM and 53.9 µM, respectively.
